Assay results taken from patent publication US20240279214A1, “ALPHA4 BETA7 INEGRIN ANTAGONISTS AND USES THEREOF” (XinThera, Inc., priority 2022, published 2024).

Biological target: T1, a4b7 integrin interaction with MadCAM-1 (Homo sapiens, UniProt P13612+P26010)
T1 construct: capture of a4b7 integrin expressing cells, RPMI8866; endogenous in cells; host or cells: RPMI8866
T1 sequence (P13612 34-1032): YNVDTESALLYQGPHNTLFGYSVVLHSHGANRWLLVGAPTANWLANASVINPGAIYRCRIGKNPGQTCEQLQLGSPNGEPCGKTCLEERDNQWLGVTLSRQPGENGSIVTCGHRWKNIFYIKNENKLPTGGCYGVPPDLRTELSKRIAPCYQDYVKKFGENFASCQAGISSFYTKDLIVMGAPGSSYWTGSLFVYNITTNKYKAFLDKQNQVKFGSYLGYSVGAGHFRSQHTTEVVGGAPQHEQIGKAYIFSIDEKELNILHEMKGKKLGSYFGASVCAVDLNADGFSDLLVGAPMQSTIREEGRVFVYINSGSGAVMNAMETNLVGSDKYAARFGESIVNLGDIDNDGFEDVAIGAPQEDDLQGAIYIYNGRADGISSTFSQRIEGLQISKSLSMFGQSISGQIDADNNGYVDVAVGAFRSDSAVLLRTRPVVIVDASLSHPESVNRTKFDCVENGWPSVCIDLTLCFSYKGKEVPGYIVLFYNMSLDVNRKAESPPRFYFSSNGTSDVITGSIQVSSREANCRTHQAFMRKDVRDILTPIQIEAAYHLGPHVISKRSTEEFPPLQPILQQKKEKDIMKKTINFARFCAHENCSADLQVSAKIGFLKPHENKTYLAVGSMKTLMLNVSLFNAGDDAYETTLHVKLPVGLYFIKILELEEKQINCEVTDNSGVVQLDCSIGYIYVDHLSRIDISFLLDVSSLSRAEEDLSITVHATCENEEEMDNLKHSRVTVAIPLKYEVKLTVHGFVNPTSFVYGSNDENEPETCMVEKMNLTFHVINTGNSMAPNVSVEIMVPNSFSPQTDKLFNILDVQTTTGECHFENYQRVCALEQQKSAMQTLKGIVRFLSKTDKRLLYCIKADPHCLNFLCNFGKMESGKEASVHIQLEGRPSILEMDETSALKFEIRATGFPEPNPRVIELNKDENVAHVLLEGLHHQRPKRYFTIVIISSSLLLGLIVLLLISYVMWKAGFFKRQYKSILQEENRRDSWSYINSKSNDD
T1 sequence (P26010 20-798): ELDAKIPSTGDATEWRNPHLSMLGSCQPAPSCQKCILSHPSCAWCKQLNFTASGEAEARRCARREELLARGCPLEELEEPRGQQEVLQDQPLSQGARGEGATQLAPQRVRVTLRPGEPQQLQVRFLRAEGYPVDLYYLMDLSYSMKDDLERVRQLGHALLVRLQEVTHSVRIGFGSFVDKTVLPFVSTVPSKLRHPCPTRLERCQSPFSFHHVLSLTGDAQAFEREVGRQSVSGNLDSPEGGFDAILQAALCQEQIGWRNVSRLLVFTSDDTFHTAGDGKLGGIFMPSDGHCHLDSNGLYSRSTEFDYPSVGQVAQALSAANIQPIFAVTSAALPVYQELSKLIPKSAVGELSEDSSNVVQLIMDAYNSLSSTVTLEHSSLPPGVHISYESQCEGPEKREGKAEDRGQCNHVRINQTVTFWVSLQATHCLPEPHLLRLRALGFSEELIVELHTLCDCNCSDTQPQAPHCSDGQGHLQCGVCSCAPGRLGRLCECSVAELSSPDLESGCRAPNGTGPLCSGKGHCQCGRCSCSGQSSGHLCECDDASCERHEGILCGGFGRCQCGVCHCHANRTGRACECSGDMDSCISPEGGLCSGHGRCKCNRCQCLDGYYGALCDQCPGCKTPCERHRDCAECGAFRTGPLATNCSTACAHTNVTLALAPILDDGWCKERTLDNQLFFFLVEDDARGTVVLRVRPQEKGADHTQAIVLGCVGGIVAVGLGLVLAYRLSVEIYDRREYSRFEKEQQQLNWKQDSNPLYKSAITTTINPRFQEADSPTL
Assay: a4b7 Cell Capture Assay (RPMI8866 cells on MAdCAM-1 Fc coated plates)
Type: cell-based
Details: 50% human serum, 1 mM MgCl2, 1 hour incubation, CellTiter-Glo luminescence, read-out: a4B7 cell capture assay RMPI8866-MadCAM EC50
Description: The potency of inhibitors in preventing a4b7 integrin interaction with MadCAM-1 was measured by monitoring the capture of a4b7 integrin expressing cells, RPMI8866, on recombinant human MAdCAM-1 Fc chimera protein-coated plates. The protein was a fusion between human MAdCAM-1 (Met1-Gln333, Accession #AAY82472) and human IgG1 (Pro100-Lys330)] (R&D Systems, Catalog #6056-MC). 96-well plates (Thermofisher, Catalog #136102) were coated with the recombinant protein by dispensing 100 μL (1.0 μg/mL) per well. After a quick spin to settle down the coating solution using a plate centrifuge, plates were incubated overnight at 4° C. in a moisture chamber. On Day 2, the plates were washed with PBS using a Bluecatbio Blue®Washer (GentleSpin wash, 3 cycles, pressure=1, volume 150 uL). Blocking solution (1.0% BSA in PBS, Sigma, Catalog #A7979) was then added at 200 uL/well, and the plates were quickly spun to settle down blocking buffer and incubated in cell culture incubator at 37° C. and 5% CO2 for 1 hour. The plates were then washed with 0.1% BSA in PBS using a Bluecatbio Blue®Washer (GentleSpin wash, 3 cycles, pressure=1, volume 150 uL). RPMI8866 cells suspended in assay medium (1 mM MgCl2 25 mM HEPES and 50% human serum, Sigma, Catalog #H4522) at a density of 1.0×10^6 cells/mL were added at 100 uL/well. Each compound evaluated was prepared as a DMSO stock solution. Test compounds were evaluated with a 9-point serial dilution curve (1000, 333.3, 111.1, 55.6, 27.8, 13.9, 6.9, 2.3, and 0.77 nM)) and were added to the plates using a Tecan D.30e Digita dispenser, the dispensed stock is 100 nL and the final DMSO concentration is 0.1%. Potent compounds were re-evaluated at a new 9-point serial dilution curve (100, 33.3, 11.1, 5.6, 2.8, 1.4, 0.69, 0.23, and 0.08 nM). Each titration curves were performed in triplicate on the same plate, and most of compounds were retested in different dates multiple times. The plates were shaken at 300 rpm on orbital plate shaker for 3 minutes to mix the cells and compounds, quickly spun to settle the cells and solution, and incubated in cell culture incubator at 37° C. and 5% CO2. After 1 hour incubation, the unbound cells were washed away with RPMI1640 medium supplemented with 1 mM MgCl2 and 1% BSA) (wash buffer) using a Bluecatbio Blue®Washer (MagbeadsSpin wash, 1 cycle, pressure 1, volume=150 uL). After wash buffer removal, A mixture of wash buffer/CellTiter-Glo® Reagent (Pormega, catalog #G7573) at 1:1 (V/V) was added at volume of 100 uL to each well. The plates were placed in a chamber at 25° C. and incubated for 30 minutes. Luminescence was recorded using a Envision plate reader 2105 according to CellTiter-Glo protocol.
The mean luminescence signals from negative control wells without MadCAM-1 coating and compound treatment (cells only) was defined as 100% binding inhibition, and the mean luminescence signals from positive control wells with MadCAM-1 coating but without compound treatment (MadCAM-1 and cells only) was defined as 0% binding inhibition. The luminescence signals from other compound treated wells were normalized in percentage scale accordingly. The normalized mean % inhibition data were plotted against logarithmic compound concentration in nanomolar and were fitted with 4-parameter logistic model to obtain IC50 for each compound.

| EC50 [nM] | Compound |
| --- | --- |
| 2.3 | Cc1cc2cc(c1F)[C@H](CC(=O)O)NC(=O)[C@@H](n1cc(CCN(C)C)c(C(F)(F)F)cc1=O)c1cccc(c1)Oc1cccc(C)c1-2 (relative stereo) [Example 23, [(14R*,17S)-14-{5-[2-(dimethylamino)ethyl]-2-oxo-4-(trifluoromethyl)pyridin-1-yl}-19-fluoro-3,20-dimethyl-15-oxo-8-oxa-16-azatetracyclo[16.3.1.1^{9,13}.0^{2,7}]tricosa-1(22),2(7),3,5,9,11,13(23),18,20-nonaen-17-yl]acetic acid] |
| 33 | Cc1cc2cc(c1F)[C@H](CC(=O)O)NC(=O)[C@@H](n1cc(CCN3CCC(F)(F)CC3)c(C(F)(F)F)cc1=O)c1cc(ccc1F)COc1cccc(C)c1-2 (single isomer, unassigned) [Example 62] |
| 970 | Cc1ccc(C)c2c1Oc1cccc(c1)[C@H](n1cc(CCN3CC(F)C3)c(C(F)(F)F)cc1=O)C(=O)N[C@@H](CC(=O)O)c1cc-2cc(C(F)(F)F)c1F (relative stereo) [Example 12, [(14R*,17S)-19-fluoro-14-{5-[2-(3-fluoroazetidin-1-yl)ethyl]-2-oxo-4-(trifluoromethyl)pyridin-1-yl}-3,6-dimethyl-15-oxo-20-(trifluoromethyl)-8-oxa-16-azatetracyclo[16.3.1.1^{9,13}.0^{2,7}]tricosa-1(22),2(7),3,5,9,11,13(23),18,20-nonaen-17-yl]acetic acid] |
| 15 | Cc1cc2c(F)c(c1F)[C@H](CC(=O)O)NC(=O)[C@@H](n1cc(CCN3CC(F)C3)c(C(F)(F)F)cc1=O)c1cc(ccc1F)Oc1cccc(C)c1-2 (single isomer, unassigned) [Example 77] |
| 16 | Cc1cccc2c1-c1cc(c(C)s1)[C@H](CC(=O)O)NC(=O)[C@@H](n1cc(CCN3CC(F)C3)c(C(F)(F)F)cc1=O)c1cc(ccc1F)O2 (single isomer, unassigned) [Example 72] |
| 440 | Cc1cc(C)c2c(c1)Oc1cccc(c1)[C@H](n1cc(CCN3CC(F)C3)c(C(F)(F)F)cc1=O)C(=O)N[C@@H](CC(=O)O)c1cc-2cc(C(F)(F)F)c1F (relative stereo) [Example 4, [(14R*,17S)-19-fluoro-14-{5-[2-(3-fluoroazetidin-1-yl)ethyl]-2-oxo-4-(trifluoromethyl)pyridin-1-yl}-3,5-dimethyl-15-oxo-20-(trifluoromethyl)-8-oxa-16-azatetracyclo[16.3.1.1^{9,13}.0^{2,7}]tricosa-1(21),2(7),3,5,9,11,13(23),18(22),19-nonaen-17-yl]acetic acid] |
| 160 | Cc1cc2cc(c1F)[C@H](CC(=O)O)NC(=O)[C@@H](n1ccc(C(F)(F)F)cc1=O)c1cc(ccc1F)COc1cccc(C)c1-2 (single isomer, unassigned) [Example 44] |
| 3.5 | Cc1ccc2cc1[C@H](n1cc(CCN3CC(F)C3)c(C(F)(F)F)cc1=O)C(=O)N[C@@H](CC(=O)O)c1cc(cc(C)c1F)-c1c(C)cccc1O2 (single isomer, unassigned) [Example 71] |
| 0.84 | Cc1cc2cc(c1F)[C@H](CC(=O)O)NC(=O)[C@@H](n1cc(CCN3CC(F)C3)c(C(F)(F)F)cc1=O)c1cc(ccc1F)Oc1cccc(Cl)c1-2 (relative stereo) [Example 19, [(14R*,17S)-3-chloro-12,19-difluoro-14-{5-[2-(3-fluoroazetidin-1-yl)ethyl]-2-oxo-4-(trifluoromethyl)pyridin-1-yl}-20-methyl-15-oxo-8-oxa-16-azatetracyclo[16.3.1.1^{9,13}.0^{2,7}]tricosa-1(22),2(7),3,5,9,11,13(23),18,20-nonaen-17-yl]acetic acid] |
| 380 | Cc1cc2cc(c1F)[C@H](CC(=O)O)NC(=O)[C@@H](n1cc(CCN3CC(F)C3)c(C(F)(F)F)cc1=O)c1cc(ccc1F)Oc1nn(CC3CC3)cc1-2 (single isomer, unassigned) [Example 60] |
| 0.4 | Cc1cc2cc(c1F)[C@H](CC(=O)O)NC(=O)[C@@H](n1cc(CCN3CC(F)C3)cc(C)c1=O)c1cc(ccc1F)Oc1cccc(C)c1-2 (single isomer, unassigned) [Example 66] |
